Values of other authors as cited in patent publication US20080311054A1, “Compositions and Methods to Counteract Oral Malodour” (GIVAUDAN SA, priority 2005, published 2008).

Test system: microorganisms such as yeasts
Conditions: WO 99/51093

CCCCCCCCO [octanol]
effect (killing microorganisms such as yeasts): no effect
